Measurements as given in US4562287A, “2-(4-Biphenylyl)-4-hexenoic acid and derivatives thereof having anti-inflammatory activity” (priority 1983, dated 1985).
Structures can show the parent of a compound that is named as a salt.

Key:
[1] = system: Carragenine induced edema; assay: Anti-inflammatory activity on carragenine induced edema (Table 11); type: in vivo; details: for % inhibition: 50 mg/Kg p.o.
[2] = system: Cotton-pellets induced granuloma; assay: Cotton-pellets induced granuloma; type: in vivo; details: 200 mg/Kg p.o.
Excerpt: | Cotton-pellets induced granuloma.

[3] = system: Carragenine induced edema; assay: Activity on carragenine induced edema (Table 9); type: in vivo
Excerpt: |Activity on carragenine induced edema.

in vivo = details: po, rat, p.o., read-out: DL50 (the source's name)
[4] = system: erytrocytes sedimetation rate (ESR); assay: Erytrocytes sedimetation rate (ESR) (Table 8); type: in vivo; set-up: unit not given here; details: arthritis checks 41, 56
[5] = system: Carragenine induced edema; assay: Carragenine induced edema, first test (Table 2); type: in vivo
Excerpt: |ANTI-INFLAMMATORY ACTIVITY. |Carragenine induced edema, first test.

[6] = system: Freund's adjuvant induced arthritis; assay: Freund's adjuvant induced arthritis, edema inhibition
SH Groups in serum = assay: SH groups in serum (Table 8); type: in vivo; details: arthritis checks 70, 77
Joint's diameter = Joint's diameter in arthritis (Table 7); type: in vivo; set-up: unit not given here
Carragenine edema = assay: Edema induced by different substances: carragenine (Table 3); type: in vivo
Excerpt: (§1) |Edema induced by different substances.

Yeast edema = assay: Edema induced by different substances: yeast (Table 3); type: in vivo
Excerpt: |Edema induced by different substances. | % edema inhibition

[7] = system: capillary permeability (Histamine); assay: Effect on the capillary permeability, histamine; type: in vivo; details: 200 mg/Kg p.o., checks 21.33, 200 mg/kg
Excerpt: (§2) |Effect on the capillary permeability

Serotonin edema = assay: Edema induced by different substances: serotonin (Table 3); type: in vivo
Excerpt: as §1

Dextrose edema = assay: Edema induced by different substances: dextrose (Table 3); type: in vivo
Excerpt: as §1

Kaolin edema = assay: Edema induced by different substances: kaolin (Table 3); type: in vivo
Excerpt: as §1

[8] = system: capillary permeability (Dextran); assay: Effect on the capillary permeability, dextran; type: in vivo; details: 200 mg/Kg p.o., checks 14.83, 200 mg/kg
Excerpt: as §2

[9] = system: capillary permeability (Serotonin); details: 200 mg/Kg p.o., checks 18.16
ulcerogenic effect = assay: Ulcerogenic effect; type: in vivo; details: dose 50 mg
[10] = 20 mg/Kg p.o., 1 week, arthritis checks 0.48, 0.38
[11] = 20 mg/Kg p.o., 2 weeks, arthritis checks 0.71, 0.75
[12] = 20 mg/Kg p.o., 3 weeks, arthritis checks 0.81, 0.79
[13] = 20 mg/Kg p.o., 4 weeks, arthritis checks 0.85, 0.89
[14] = 40 mg/Kg p.o., 1 week, arthritis checks 0.48, 0.38
[15] = 40 mg/Kg p.o., 2 weeks, arthritis checks 0.71, 0.75
[16] = 40 mg/Kg p.o., 3 weeks, arthritis checks 0.81, 0.79
[17] = 40 mg/Kg p.o., 4 weeks, arthritis checks 0.85, 0.89

## CCCCC1C(=O)N(c2ccccc2)N(c2ccc(O)cc2)C1=O (centres unmarked) [Oxyphenbutazone, reference compound]
[1]
  % inhibition: 41%
[2]
  % inhibition: 24%

## CC=CCC(C(=O)O)c1ccc(-c2ccc(Cl)cc2)cc1 (racemic) [SCR 158, 2-[4-biphenylyl-(4' chloro)]4-hexenoic acid]
[3]; 56 mg/Kg p.o.
  Inhibition %: 0%
[3]; 85 mg/Kg p.o.
  Inhibition %: 16%
[3]; 127 mg/Kg p.o.
  Inhibition %: 14%
In vivo
  LD50: 940 mg/kg

## CC(C)Cc1ccc(C(C)C(=O)O)cc1 (centres unmarked) [Ibuprofen]
[4]; 20 mg/Kg p.o.
  E.S.R.: 58
[4]; 40 mg/Kg p.o.
  E.S.R.: 30
[5]; 12.5 mg/Kg p.o.
  % inhibition: 27%
[5]; 25 mg/Kg p.o.
  % inhibition: 33%
[5]; 50 mg/Kg p.o.
  % inhibition: 47%
[5]; 100 mg/Kg p.o.
  % inhibition: 54%
[6]; 20 mg/Kg p.o., 2 days
  Edema inhibition %: 34%
[6]; 20 mg/Kg p.o., 4 days
  Edema inhibition %: 29%
[6]; 20 mg/Kg p.o., 8 days
  Edema inhibition %: 19%
[6]; 20 mg/Kg p.o., 12 days
  Edema inhibition %: 24%
[6]; 20 mg/Kg p.o., 16 days
  Edema inhibition %: 14%
[6]; 20 mg/Kg p.o., 24 days
  Edema inhibition %: 4%
[6]; 40 mg/Kg p.o., 2 days
  Edema inhibition %: 32%
[6]; 40 mg/Kg p.o., 4 days
  Edema inhibition %: 17%
[6]; 40 mg/Kg p.o., 8 days
  Edema inhibition %: 26%
[6]; 40 mg/Kg p.o., 12 days
  Edema inhibition %: 19%
[6]; 40 mg/Kg p.o., 16 days
  Edema inhibition %: 27%
[6]; 40 mg/Kg p.o., 20 days
  Edema inhibition %: 19%
[6]; 40 mg/Kg p.o., 24 days
  Edema inhibition %: 9%
SH Groups in serum; 20 mg/Kg p.o.
  SH groups diminution in %: 78%
SH Groups in serum; 40 mg/Kg p.o.
  SH groups diminution in %: 73%
Joint's diameter; [10]
  Joint's diameter: 0.31
Joint's diameter; [11]
  Joint's diameter: 0.53
Joint's diameter; [12]
  Joint's diameter: 0.65
Joint's diameter; [13]
  Joint's diameter: 0.81
Joint's diameter; [14]
  Joint's diameter: 0.35
Joint's diameter; [15]
  Joint's diameter: 0.60
Joint's diameter; [16]
  Joint's diameter: 0.75
Joint's diameter; [17]
  Joint's diameter: 0.80
[1]
  % inhibition: 40%

## CC=CCC(C(=O)O)c1ccc(-c2ccccc2)cc1 (single isomer, unassigned; (-)) [SCR 156, (-) 2-(4-biphenylyl)-4-hexenoic acid]
Carragenine edema; 50 mg/Kg p.o., 50 mg/kg
  % edema inhibition: 9%
Carragenine edema; 100 mg/Kg p.o., 100 mg/kg
  % edema inhibition: 31%
Carragenine edema; 200 mg/Kg p.o., 200 mg/kg
  % edema inhibition: 23%
Yeast edema; 50 mg/Kg p.o.
  % edema inhibition: 13%
Yeast edema; 100 mg/Kg p.o., 100 mg/kg
  % edema inhibition: 5%
Yeast edema; 200 mg/Kg p.o., 200 mg/kg
  % edema inhibition: 7%
[7]
  Effect on the capillary permeability, .0. m.micron: 21.00 m.micron
Serotonin edema; 50 mg/Kg p.o., 50 mg/kg
  % edema inhibition: 0%
Serotonin edema; 100 mg/Kg p.o., 100 mg/kg
  % edema inhibition: 13%
Serotonin edema; 200 mg/Kg p.o., 200 mg/kg
  % edema inhibition: 0%
Dextrose edema; 50 mg/Kg p.o., 50 mg/kg
  % edema inhibition: 14%
Dextrose edema; 100 mg/Kg p.o., 100 mg/kg
  % edema inhibition: 5%
Dextrose edema; 200 mg/Kg p.o., 200 mg/kg
  % edema inhibition: 12%
Kaolin edema; 50 mg/Kg p.o., 50 mg/kg
  % edema inhibition: 32%
Kaolin edema; 100 mg/Kg p.o., 100 mg/kg
  % edema inhibition: 26%
Kaolin edema; 200 mg/Kg p.o., 200 mg/kg
  % edema inhibition: 28%
[8]
  Effect on the capillary permeability, .0. m.micron: 13.58 m.micron
[2]
  % inhibition: 11%
[9]
  Effect on the capillary permeability, .0. m.micron: 16.43 m.micron

## CC=CCC(C(=O)O)c1ccc(-c2ccccc2)cc1 (single isomer, unassigned; (+)) [SCR 152, (+) 2-(4-biphenylyl)-4-hexenoic acid]
Carragenine edema; 50 mg/Kg p.o., 50 mg/kg
  % edema inhibition: 54%
Carragenine edema; 100 mg/Kg p.o., 100 mg/kg
  % edema inhibition: 52%
Carragenine edema; 200 mg/Kg p.o., 200 mg/kg
  % edema inhibition: 66%
Yeast edema; 50 mg/Kg p.o.
  % edema inhibition: 13%
Yeast edema; 100 mg/Kg p.o., 100 mg/kg
  % edema inhibition: 25%
Yeast edema; 200 mg/Kg p.o., 200 mg/kg
  % edema inhibition: 17%
Ulcerogenic effect
  ulcerogenic effect: exhibits none ulcerogenic effect
[7]
  Effect on the capillary permeability, .0. m.micron: 21.57 m.micron
Serotonin edema; 50 mg/Kg p.o., 50 mg/kg
  % edema inhibition: 3%
Serotonin edema; 100 mg/Kg p.o., 100 mg/kg
  % edema inhibition: 3%
Serotonin edema; 200 mg/Kg p.o., 200 mg/kg
  % edema inhibition: 17%
Dextrose edema; 50 mg/Kg p.o., 50 mg/kg
  % edema inhibition: 12%
Dextrose edema; 100 mg/Kg p.o., 100 mg/kg
  % edema inhibition: 39%
Dextrose edema; 200 mg/Kg p.o., 200 mg/kg
  % edema inhibition: 45%
Kaolin edema; 50 mg/Kg p.o., 50 mg/kg
  % edema inhibition: 19%
Kaolin edema; 100 mg/Kg p.o., 100 mg/kg
  % edema inhibition: 40%
Kaolin edema; 200 mg/Kg p.o., 200 mg/kg
  % edema inhibition: 40%
[8]
  Effect on the capillary permeability, .0. m.micron: 8.00 m.micron
[1]
  % inhibition: 31%
[1]; dose of 50 mg
  anti-inflammatory effect (in words): rather good anti-inflammatory effect
[2]
  % inhibition: 12%
[9]
  Effect on the capillary permeability, .0. m.micron: 17.71 m.micron

## CCCCC1C(=O)N(c2ccccc2)N(c2ccccc2)C1=O [PHENYL-BUTAZONE, phenylbutazone, reference compound]
Carragenine edema; 50 mg/Kg p.o.
  % edema inhibition: 13%
Carragenine edema; 100 mg/Kg p.o.
  % edema inhibition: 32%
Carragenine edema; 200 mg/Kg p.o.
  % edema inhibition: 61%
Yeast edema; 50 mg/Kg p.o.
  % edema inhibition: 7%
Yeast edema; 100 mg/Kg p.o.
  % edema inhibition: 23%
Yeast edema; 200 mg/Kg p.o.
  % edema inhibition: 18%
[5]; 75 mg/Kg p.o.
  % inhibition: 43%
[5]; 150 mg/Kg p.o.
  % inhibition: 46%
Serotonin edema; 50 mg/Kg p.o.
  % edema inhibition: 24%
Serotonin edema; 100 mg/Kg p.o.
  % edema inhibition: 12%
Serotonin edema; 200 mg/Kg p.o.
  % edema inhibition: 25%
Dextrose edema; 50 mg/Kg p.o.
  % edema inhibition: 0%
Dextrose edema; 100 mg/Kg p.o.
  % edema inhibition: 0%
Dextrose edema; 200 mg/Kg p.o.
  % edema inhibition: 18%
Kaolin edema; 50 mg/Kg p.o.
  % edema inhibition: 41%
Kaolin edema; 100 mg/Kg p.o.
  % edema inhibition: 40%
Kaolin edema; 200 mg/Kg p.o.
  % edema inhibition: 53%

## CC(=O)Oc1ccccc1C(=O)O [Acetylsalicylic acid, reference compound]
[1]
  % inhibition: 23%

## CC=CCC(C(=O)O)c1ccc(-c2ccccc2)cc1 (single isomer, unassigned) [SCR 153, Triethanolamine salt of dextrogyre form]
[4]; 20 mg/Kg p.o.
  E.S.R.: 59
[4]; 40 mg/Kg p.o.
  E.S.R.: 32
[5]; 12.5 mg/Kg p.o.
  % inhibition: 24%
[5]; 25 mg/Kg p.o.
  % inhibition: 29%
[5]; 50 mg/Kg p.o.
  % inhibition: 45%
[5]; 100 mg/Kg p.o.
  % inhibition: 53%
Ulcerogenic effect
  ulcerogenic effect: it is doubtful that above dose (50 mg) of SCR 153 could have any ulcerogenic effect
[6]; 20 mg/Kg p.o., 2 days
  Edema inhibition %: 40%
[6]; 20 mg/Kg p.o., 4 days
  Edema inhibition %: 24%
[6]; 20 mg/Kg p.o., 8 days
  Edema inhibition %: 52%
[6]; 20 mg/Kg p.o., 12 days
  Edema inhibition %: 49%
[6]; 20 mg/Kg p.o., 16 days
  Edema inhibition %: 30%
[6]; 20 mg/Kg p.o., 20 days
  Edema inhibition %: 22%
[6]; 20 mg/Kg p.o., 24 days
  Edema inhibition %: 10%
[6]; 40 mg/Kg p.o., 2 days
  Edema inhibition %: 60%
[6]; 40 mg/Kg p.o., 4 days
  Edema inhibition %: 40%
[6]; 40 mg/Kg p.o., 8 days
  Edema inhibition %: 56%
[6]; 40 mg/Kg p.o., 12 days
  Edema inhibition %: 61%
[6]; 40 mg/Kg p.o., 16 days
  Edema inhibition %: 59%
[6]; 40 mg/Kg p.o., 20 days
  Edema inhibition %: 56%
[6]; 40 mg/Kg p.o., 24 days
  Edema inhibition %: 55%
SH Groups in serum; 20 mg/Kg p.o.
  SH groups diminution in %: 79%
SH Groups in serum; 40 mg/Kg p.o.
  SH groups diminution in %: 48%
Joint's diameter; [10]
  Joint's diameter: 0.46
Joint's diameter; [11]
  Joint's diameter: 0.61
Joint's diameter; [12]
  Joint's diameter: 0.62
Joint's diameter; [13]
  Joint's diameter: 0.73
Joint's diameter; [14]
  Joint's diameter: 0.24
Joint's diameter; [15]
  Joint's diameter: 0.39
Joint's diameter; [16]
  Joint's diameter: 0.44
Joint's diameter; [17]
  Joint's diameter: 0.52
[1]; 50 mg SCR 153 vs 5 mg indomethacin
  anti-inflammatory effect compared with 5 mg of indomethacin: near equal to the one obtained with 5 mg of indomethacin
[1]
  % inhibition: 37%
